Experimental data reported in patent publication US11203610B2, “2′3′ cyclic dinucleotides with phosphonate bond activating the sting adaptor protein” (INSTITUTE OF ORGANIC CHEMISTRY AND BIOCHEMISTRY ASCR, V.V.I., priority 2017, dated 2021).

Tests used:
WT STING [1] = target: T1, WT STING (Homo sapiens, UniProt Q86WV6, H232R); assay: Digitonin assay using 293T wtSTING-FL reporter cells; format: cell-based; details: 293T wtSTING-FL cells; 30 minutes in Digitonin buffer, then 5 hours; ISRE firefly luciferase reporter; 8-point dose-response curve; read-out: Digitonin assay EC50 (μmol · l^−1) WT STING
Text: ISRE Reporter Plasmid (pGL64.27-4xISRE)
Two complementary oligonucleotides of the sequence […] […] […] […] […] The oligonucleotides were mixed in equal molar amounts, hybridized, and cleaved by restriction endonucleases HindIII (cat. #. R0104S, NEB, Ipswich, USA) and BglII (cat. #R0144S, NEB, Ipswich, USA). Ultimately, they were ligated into plasmid pGL4.27 (cat. #E6651, Promega, Madison, USA) linearized with the same enzymes. As result the sequence with four ISRE sites was placed upstream of the minimum promoter of firefly luciferase reporter gene.
After 5 minutes incubation at room temperature (RT), 250 μL of the mixture was added dropwise to the cells in one well. Cells were incubated 36 hours at 37° C. with 5% CO2, and then detached with 0.05% Trypsin and 0.22 g/L EDTA (both cat. #L0941, Biowest, Riverside, USA).
Transfected cells were seeded onto poly-D-lysine coated six well plates at density 50,000 cells per 1 cm^2 in DMEM medium with high glucose containing 10% heat inactivated FBS, 30 g/mL blasticidin (cat. #ant-bl-05, InvivoGen, San Diego, USA), 0.06 mg/ml Penicillin G and 0.1 mg/ml Streptomycin Sulfate (both cat. #. L0018, Biowest, Riverside, USA). The medium was replenished every 3-4 days until visible colonies of cells resistant to blasticidin were formed.
Blasticidin resistant cells stably expressing WT STING were further transfected with […] plasmid following the same procedure as described above. […] Homogeneous culture of stably double transfected cells was prepared by limiting dilution of cells in 96 well plates and wells with cells were selected that originated from a single cell.
The medium was removed next day and three fold serial dilutions of compounds in Digitonin buffer containing 50 mmol·l^−1 HEPES (cat. #H3375, Sigma Aldrich, Czech Republic) pH 7.0, 100 mmol·l^−1 KCl, 3 mmol·l^−1 MgCl2, 0.1 mmol·l^−1 DTT (cat. #D0632, Sigma Aldrich, Czech Republic), 85 mmol·l^−1 Sucrose (cat. #S7903, Sigma Aldrich, Czech Republic), 0.2% BSA (cat. #A2153, Sigma Aldrich, Czech Republic), 1 mmol·l^−1 ATP (cat. #A1852, Sigma Aldrich, Czech Republic), 0.1 mmol·l^−1 GTP (cat. #G8877, Sigma Aldrich, Czech Republic), and 10 μg/mL Digitonin A (cat. #D141, Sigma Aldrich, Czech Republic) were added to the cells. The buffer was removed after 30 minutes incubation at 37° C. with 5% CO2, the cells were washed once with 100 μl of cultivation medium, and 100 μl of medium was added to each well. The plates with cells were incubated for 5 hours at 37° C. with 5% CO2, 50 μl of the medium was removed and 30 μl of ONE-Glo™ Luciferase Assay System reagent (cat. #E6120, Promega, Madison, USA) was added to each well. Luminescence was read on Synergy H1 (Biotek, Winooski, USA).
Target sequence in this assay (Q86WV6 whole entry H232R): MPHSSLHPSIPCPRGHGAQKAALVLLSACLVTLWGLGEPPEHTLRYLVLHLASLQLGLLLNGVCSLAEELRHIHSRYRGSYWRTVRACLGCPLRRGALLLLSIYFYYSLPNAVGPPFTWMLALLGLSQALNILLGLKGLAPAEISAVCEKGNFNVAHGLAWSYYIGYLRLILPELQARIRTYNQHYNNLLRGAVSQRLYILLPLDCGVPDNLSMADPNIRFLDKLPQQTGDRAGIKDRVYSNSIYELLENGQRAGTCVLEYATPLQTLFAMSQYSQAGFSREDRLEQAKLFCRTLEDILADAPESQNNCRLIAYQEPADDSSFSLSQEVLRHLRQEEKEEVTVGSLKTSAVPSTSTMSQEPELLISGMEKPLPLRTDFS

AQ STING (G230A-R293Q) = target: T2, AQ STING (G230A-R293Q) (Homo sapiens, UniProt Q86WV6, G230A/H232R/R293Q); assay: Differential Scanning Fluorimetry with AQ STING; format: binding; details: thermal shift vs STING apoprotein; 150 μM CDN; 0.1 mg/ml truncated human AQ STING; SYPRO Orange; read-out: DSF ΔTm (° C.) AQ STING
T2 construct: truncated human WT STING or AQ STING (amino acid residues 140-343); 8xHis (N, cleaved yes); SUMO (N, cleaved yes); made in house; host or cells: E. coli Rosetta-gami B (DE3)
T2 sequence (Q86WV6 140-343 G230A/H232R/R293Q): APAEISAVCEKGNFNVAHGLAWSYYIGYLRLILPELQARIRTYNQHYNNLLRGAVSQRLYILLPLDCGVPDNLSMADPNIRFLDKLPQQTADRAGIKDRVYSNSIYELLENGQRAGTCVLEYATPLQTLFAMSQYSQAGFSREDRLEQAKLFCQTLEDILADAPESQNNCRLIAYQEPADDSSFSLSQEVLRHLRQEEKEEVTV
Method: (§1) WT STING and AQ STING Proteins
(§2) Purified PCR products were cleaved with restriction enzymes BamHI (cat. #R0136S, NEB, Ipswich, USA) and NotI (cat. #R0189S, NEB, Ipswich, USA) and cloned into the pSUMO vector linearized with the identical enzymes.
(§3) The resin was poured into a chromatography column, washed with 50 ml buffer A (50 mmol·l^−1 TrisCl (pH 8.0), 800 mmol·l^−1 NaCl, 3 mmol·l^−1 β-mercaptol; 10% glycerol; 20 mmol·l^−1 imidazole) and 8-His-SUMO tagged STING proteins were eluted with 15 ml buffer A containing 300 mmol·l^−1 imidazole. […] Proteins were concentrated with Amicon® Ultra-15 10 K device (cat. #UFC901008, Merck Millipore, Billerica, USA) and flash frozen in liquid N2.
(§4) Differential Scanning Fluorimetry with WT STING and AQ STING
(§5) 20 μL solutions of the reaction mixtures were pipetted in triplicates into 96 well optical reaction plates and thermal denaturation of samples were performed on real time PCR cycler (LightCycler® 480 Instrument II—Roche, Basel, Switzerland). The first derivative of the thermal denaturation curves was performed to calculate denaturing temperatures of STING—CDN complexes and STING apoproteins. The thermal shift for each CDN was calculated by subtracting the average denaturing temperature of STING apoprotein from the average denaturing temperature of STING CDN complex.

WT STING [2] = target: T1, WT STING; assay: Differential Scanning Fluorimetry with WT STING; format: binding; parameters: truncated human WT STING or AQ STING (amino acid residues 140-343); 8xHis (N, cleaved yes); SUMO (N, cleaved yes); made in house; host or cells: E. coli Rosetta-gami B (DE3); details: thermal shift vs STING apoprotein; 150 μM CDN; 0.1 mg/ml truncated human WT STING; SYPRO Orange; read-out: DSF ΔTm (° C.) WT STING
Method: as §1, §2, §3, §4, §5
Target sequence in this assay (Q86WV6 140-343 H232R): as the sequence (Q86WV6 140-343 G230A/H232R/R293Q) above, with A91G, Q154R counted along it

| EC50 (WT STING [1]) [nM] | ΔTm at 150 µM (AQ STING (G230A-R293Q)) [°C] | ΔTm at 150 µM (WT STING [2]) [°C] | SMILES |
| --- | --- | --- | --- |
| 20 | 18.7 | 10.8 | Nc1nc2c(ncn2[C@@H]2O[C@@H]3COP(=O)(O)O[C@@H]4[C@@H](OCP(=O)(O)O[C@@H]2[C@@H]3O)O[C@@H](n2cnc3c(N)ncnc32)[C@@H]4O)c(=O)[nH]1 [Compound 40, (1R,6R,8R,9R,10S,15R,17R,18R)-17-(2-amino-6-oxo-6,9-dihydro-1H-purin-9-yl)-8-(6-amino-9H-purin-9-yl)-3,9,12,18-tetrahydroxy-2,5,7,11,13,16-hexaoxa-3λ^5,12λ^5-diphosphatricyclo[13.2.1.0^6,10]octadecane-3,12-dione] |
| 1900 | 9.1 | 1.7 | Nc1nc2c(ccn2[C@@H]2O[C@@H]3COP(=O)(O)O[C@@H]4[C@@H](OCP(=O)(O)O[C@@H]2[C@@H]3O)O[C@@H](n2cnc3c(N)ncnc32)[C@@H]4O)c(=O)[nH]1 [Compound 41, (1R,6R,8R,9R,10S,15R,17R,18R)-17-{2-amino-4-oxo-3H,4H,7H-pyrrolo[2,3-d]pyrimidin-7-yl}-8-(6-amino-9H-purin-9-yl)-3,9,12,18-tetrahydroxy-2,5,7,11,13,16-hexaoxa-3λ^5,12λ^5-diphosphatricyclo[13.2.1.0^6,10]octadecane-3,12-dione] |
| 45400 | 2.1 | 0.1 | Cc1cn([C@@H]2O[C@@H]3COP(=O)(O)O[C@@H]4[C@@H](OCP(=O)(O)O[C@@H]2[C@@H]3O)O[C@@H](n2cnc3c(N)ncnc32)[C@@H]4O)c2nc(N)[nH]c(=O)c12 [Compound 42, (1R,6R,8R,9R,10S,15R,17R,18R)-17-{2-amino-5-methyl-4-oxo-3H,4H,7H-pyrrolo[2,3-d]pyrimidin-7-yl}-8-(6-amino-9H-purin-9-yl)-3,9,12,18-tetrahydroxy-2,5,7,11,13,16-hexaoxa-3λ^5,12λ^5-diphosphatricyclo[13.2.1.0^6,10]octadecane-3,12-dione] |
| 5 | 16.6 | 8 | Nc1nc2c(ncn2[C@@H]2O[C@@H]3OCP(=O)(O)O[C@H]4[C@@H](O)[C@H](n5cnc6c(N)ncnc65)O[C@@H]4COP(=O)(O)O[C@@H]2[C@@H]3O)c(=O)[nH]1 [Compound 43, (1R,6R,8R,9R,10S,15R,17R,18S)-17-(2-amino-6-oxo-6,9-dihydro-1H-purin-9-yl)-8-(6-amino-9H-purin-9-yl)-3,9,12,18-tetrahydroxy-2,4,7,11,14,16-hexaoxa-3λ^5,12λ^5-diphosphatricyclo[13.2.1.0^6,10]octadecane-3,12-dione] |
| 330 | 10.3 | 2.6 | Nc1nc2c(ncn2[C@@H]2O[C@@H]3OCP(=O)(O)O[C@@H]4[C@@H](OCP(=O)(O)O[C@@H]2[C@@H]3O)O[C@@H](n2cnc3c(N)ncnc32)[C@@H]4O)c(=O)[nH]1 [Compound 44, (1R,6R,8R,9R,10S,15R,17R,18S)-17-(2-amino-6-oxo-6,9-dihydro-1H-purin-9-yl)-8-(6-amino-9H-purin-9-yl)-3,9,12,18-tetrahydroxy-2,5,7,11,14,16-hexaoxa-3λ^5,12λ^5-diphosphatricyclo[13.2.1.0^6,10]octadecane-3,12-dione] |
| 10 | 25.3 | 18.7 | Nc1nc2c(ncn2[C@@H]2O[C@@H]3OCP(=O)(O)O[C@H]4[C@H](O)[C@H](n5cnc6c(N)ncnc65)O[C@@H]4COP(=O)(O)OC2C3O)c(=O)[nH]1 (stereo partly drawn) [Compound 45, (6R,8R,9S,10S,15R,17R)-17-(2-amino-6-oxo-6,9-dihydro-1H-purin-9-yl)-8-(6-amino-9H-purin-9-yl)-3,9,12,18-tetrahydroxy-2,4,7,11,14,16-hexaoxa-3λ^5,12λ^5-diphosphatricyclo[13.2.1.0^6,10]octadecane-3,12-dione] |
| 10 | 26.2 | 18.7 | Nc1nc2c(ncn2[C@@H]2O[C@@H]3OCP(=O)(O)O[C@H]4[C@@H](F)[C@H](n5cnc6c(N)ncnc65)O[C@@H]4COP(=O)(O)O[C@@H]2[C@@H]3O)c(=O)[nH]1 [Compound 46, (1R,6R,8R,9R,10R,15R,17R,18S)-17-(2-amino-6-oxo-6,9-dihydro-1H-purin-9-yl)-8-(6-amino-9H-purin-9-yl)-9-fluoro-3,12,18-trihydroxy-2,4,7,11,14,16-hexaoxa-3λ^5,12λ^5-diphosphatricyclo[13.2.1.0^6,10]octadecane-3,12-dione] |
| 100 | 10.8 | 3.4 | Nc1nc2c(ncn2[C@@H]2O[C@@H]3OCP(=O)(O)O[C@H]4[C@@H](O)[C@H](n5ccc6c(N)ncnc65)O[C@@H]4COP(=O)(O)O[C@@H]2[C@@H]3O)c(=O)[nH]1 [Compound 47, (1R,6R,8R,9R,10S,15R,17R,18S)-17-(2-amino-6-oxo-6,9-dihydro-1H-purin-9-yl)-8-{4-amino-7H-pyrrolo[2,3-d]pyrimidin-7-yl}-3,9,12,18-tetrahydroxy-2,4,7,11,14,16-hexaoxa-3λ^5,12λ^5-diphosphatricyclo[13.2.1.0^6,10]octadecane-3,12-dione] |
| 170 | 11.6 | 3.9 | Nc1ncc2ncn([C@@H]3O[C@@H]4COP(=O)(O)O[C@@H]5[C@H](O)[C@@H](OCP(=O)(O)O[C@H]4[C@H]3O)O[C@H]5n3cnc4c(=O)[nH]c(N)nc43)c2n1 [Compound 48, (1R,6R,8R,9R,10S,15R,17R,18S)-17-(2-amino-6-oxo-6,9-dihydro-1H-purin-9-yl)-8-(2-amino-9H-purin-9-yl)-3,9,12,18-tetrahydroxy-2,4,7,11,14,16-hexaoxa-3λ^5,12λ^5-diphosphatricyclo[13.2.1.0^6,10]octadecane-3,12-dione] |
| 150 | 9.3 | 3.8 | CNc1ncnc2c1ncn2[C@@H]1O[C@@H]2COP(=O)(O)O[C@@H]3[C@H](O)[C@@H](OCP(=O)(O)O[C@H]2[C@H]1O)O[C@H]3n1cnc2c(=O)[nH]c(N)nc21 [Compound 49, (1R,6R,8R,9R,10S,15R,17R,18S)-17-(2-amino-6-oxo-6,9-dihydro-1H-purin-9-yl)-3,9,12,18-tetrahydroxy-8-[6-(methylamino)-9H-purin-9-yl]-2,4,7,11,14,16-hexaoxa-3λ^5,12λ^5-diphosphatricyclo[13.2.1.0^6,10]octadecane-3,12-dione] |
